Data taken from patent publication US8809290B2 (priority 2002, dated 2014).
No end group written: not given here.

Columns and labels:
[1] = tested on: Human THP-1 monocytic cells; format: binding
[2] = tested on: chemokine gene-expression; design: species or system mice; conditions: mouse, in vivo
antibodies against hIgG = tested on: antibodies against hIgG; design: species or system C57BL/6 mice; conditions: mouse, in vivo, iv
[3] = tested on: SP2/0 cells expressing IgNP; design: species or system Balb/c mice; conditions: mouse, in vivo
CD 11b+ APC = format: binding, C57 BL/6 mice
[4] = tested on: T cell immunity to MHC class I-restricted peptides R10K and SIINFEKL; design: species or system BALB/c mice; C57BL/6 mice; conditions: mouse, in vivo
[5] = mouse, in vivo, iv

## Polyadenylic-Polyuridylic Acid [pA:pU]
[1]
  competition of binding of tagged pA:pU to THP-1 cells: able to compete out the binding of tagged pA:pU
[2]
  chemokine expression in pulmonary tissue: trigger expression of a wide range of chemokines
Antibodies against hIgG
  prevention of high zone tolerance (anti-hIgG endpoint titers): largely prevent high zone tolerance
[3]
  outcome of tumor-bearing mice: succumbed to disease
CD 11b+ APC
  receptor binding on APC (competition with tagged pA:pU): bind to different cellular receptors
[4]
  T cell immunity to MHC class I-restricted peptides (IFN-γ, IL-4 SFC/spleen): able to promote increased T cell immunity to different MHC class I-restricted peptides

## SFERFEIFPKE [HA peptide]
[5]
  detection of epitope in the blood as function of time post-injection: not detected in the periphery
